From PubChem BioAssay (NCI)
Values joined by “and” are separate entries in the source; they are usually repeats but may differ in a detail not shown here. Equal entries are not always repeated.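 Where inhibition never reached the appropriate level, the endpoint shown equals the highest concentration tested. Otherwise, values were interpolated linearly from a five-concentration, 48-hour dose response in 96-well plates. GI50: concentration for 50% inhibition of growth. Definition used: TGI = concentration required for complete inhibition of growth.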

Legend:
Test in all cases: NCI anticancer screen, dose series, 48 h
SNB-75 CNS = test system: SNB-75 CNS
NCI-H23 lung = test system: NCI-H23 lung
KM12 colon = test system: KM12 colon
MDA-MB-231 breast = test system: MDA-MB-231 breast
CCRF-CEM leukemia = test system: CCRF-CEM leukemia
MDA-MB-435 = test system: MDA-MB-435
MCF7 breast = test system: MCF7 breast
TK-10 renal = test system: TK-10 renal
SNB-19 CNS = test system: SNB-19 CNS
OVCAR-4 ovarian = test system: OVCAR-4 ovarian

SMILES	GI50 (SNB-75 CNS) [µM]	TGI (SNB-75 CNS) [µM]	GI50 (NCI-H23 lung)	TGI (NCI-H23 lung) [µM]	GI50 (KM12 colon)	TGI (KM12 colon) [µM]	GI50 (MDA-MB-231 breast)	TGI (MDA-MB-231 breast) [µM]	GI50 (CCRF-CEM leukemia) [µM]	TGI (CCRF-CEM leukemia) [µM]	GI50 (MDA-MB-435) [µM]	TGI (MDA-MB-435) [µM]	GI50 (MCF7 breast) [µM]	TGI (MCF7 breast) [µM]	GI50 (TK-10 renal)	TGI (TK-10 renal) [µM]	GI50 (SNB-19 CNS)	TGI (SNB-19 CNS) [µM]	GI50 (OVCAR-4 ovarian)	TGI (OVCAR-4 ovarian) [µM]
CC1=C2[C@@H](CC1)[C@]1(C)O[C@@](C(C)C)(C[C@H]1OC(=O)CO)[C@H]2OC(=O)C1CC1c1ccccc1 (stereo partly drawn)	13.7	30.4	14.2 µM	32.4	12.9 µM	27.4	15.5 µM	33.7	16.2	39.1	14.1	27.3	8.98	27.8	16.6 µM	31.6	16.7 µM	34.6	13 µM	26.9
COC(=O)[C@H](Cc1cnc[nH]1)NC(=O)[C@@H](NC(=O)Nc1cc(C(F)(F)F)cc(C(F)(F)F)c1)C(C)C	13.5	27	16.4 µM	31.7	18.4 µM	35.3	12.4 µM	25.3	14.7	35.6	17.3	34.3	14.4	29.6	16.6 µM	30.7	10.9 µM	23.2	15 µM	29
COc1cc(/C=N/Nc2ncnc3c2cnn3-c2ccccc2)ccc1O	1.1	> 7.39	> 25 µM	> 25	1.64 µM	> 25	2.34 µM	> 25	4.54	> 25	1.41	> 15.7	6.54	> 25	> 19.2 µM	> 25	> 25 µM	> 25	15.5 µM	> 25
C=C/C=C/[C@@H](O)CC(=C)C[C@H]1OC2[C@H](C)[C@@H](OC(=O)C[C@H]3C[C@H](OC(C)=O)C[C@@]4(C[C@@](C)(O)C[C@H](CC(=C)[C@@H](C)[C@H](OC(C)=O)[C@H](C)C(=O)C[C@@H]5C[C@H](OC)CC6(C[C@@H](O)C[C@H](/C=C\CCC[C@H]7O[C@](O)(C=C[C@H]7C)[C@H]2O)O6)O5)O4)O3)[C@@H]1O	> 25	> 25	0.000475 µM and < 0.0025 µM	< 0.0025	0.000327 µM and 0.0025 µM		0.000409 µM and 0.0025 µM	0.00362	0.0025	> 25	< 0.0025	< 0.0025	< 0.0025	< 0.0025	0.00162 µM and 0.0025 µM		0.000625 µM and 0.0025 µM	> 25	0.000835 µM and 0.0025 µM	> 25
COc1ccc(C/C(=C(\C)c2ccc(OCCN3CCCC3)cc2)c2ccc(OCCN3CCCC3)cc2)cc1	1.59	3.22	3.67 µM	14.1	1.79 µM	3.52	1.73 µM	3.37	1.8	4.51	1.7	3.24	1.6	3.1	1.55 µM	3.02	2.12 µM	4.75	2.08 µM	5.1
O=C(CCCN1CCC(O)(c2ccc(Cl)cc2)CC1)c1ccc(F)cc1		68.9		84.1		39.1		51.5		> 100		33.7		> 100		> 100		> 100		> 100
Cc1ccc(S(=O)(=O)SC(C)(C)C)cc1		> 100		19.5		> 91.4		47.6		39.2		77.6		42.1		> 100		> 100		46.5
NC(=O)c1cc([N+](=O)[O-])c(Cl)c([N+](=O)[O-])c1Cl	1.77	3.69	1.96 µM	4.25	1.61 µM	3.02	1.79 µM	3.39	0.4	2.38	1.93	3.73	0.893	2.64	1.61 µM	2.99	2.29 µM	5.93	1.77 µM	3.19
COc1cccc(CC(C)=C(c2ccc(OCCN3CCCCC3)cc2)c2ccc(OCCN3CCCCC3)cc2)c1	1.77	3.83	2.13 µM	4.47	1.93 µM	4.11	1.92 µM	4.02	1.71	4.73	1.67	3.57	0.728	2.81	2.36 µM	4.54	2.11 µM	4.13	1.95 µM	4.03
O=S(=O)(NNc1ccccc1)c1ccccc1		> 100		> 100		18.1		17.5		50		21.3		28.8		> 100		> 100		31.5
